From ChEMBL document CHEMBL5033988, “Quinolizidine Alkaloids from Cylicomorpha solmsii” (2021) come the findings set out here.

What all share (assay type): functional
Settings in all cases: HCT-116, 72 h, time 3 day

For test [1], the system named is HCT-116. Briefly: Antiproliferative activity against human HCT-116 cells assessed as cell growth inhibition at 20 uM after 3 days by ATPlite assay relative to control.
Test [2] deals with HCT-116. Nature of the test: Antiproliferative activity against human HCT-116 cells assessed as cell growth inhibition at 10 uM after 3 days by ATPlite assay relative to control.
Test [3] has as its system HCT-116. Nature of the test: Antiproliferative activity against human HCT-116 cells assessed as cell growth inhibition at 1 uM after 3 days by ATPlite assay relative to control.
For test [4], the system named is HCT-116. Nature of the test: Antiproliferative activity against human HCT-116 cells assessed as cell growth inhibition at 0.4 uM after 3 days by ATPlite assay relative to control.

On to `COc1ccc(/C=C/C(=O)O[C@@H]2CC[C@@H]3CCC[C@H](CC(=O)O)N3[C@H]2C)cc1`, for which, in the test with HCT-116 [1], the inhibition at 20 µM is 80.2%. For the same compound, in the test with HCT-116 [2], the inhibition at 10 µM is 62.3%. Besides, the inhibition at 1 µM in the test on HCT-116 [3] turned out to be 0.9%. The inhibition at 0.4 µM in the test on HCT-116 [4] was -6.1%.
Consider `C[C@H]1[C@H](OC(=O)/C=C/c2ccccc2)CC[C@@H]2CCC[C@H](CC(=O)O)N21`, for which the inhibition at 20 µM in the test with HCT-116 [1] turned out to be 0.7%. The inhibition at 10 µM with HCT-116 [2] was -4.2%. Moreover, the inhibition at 1 µM in the test on HCT-116 [3] is -7.8%. The inhibition at 0.4 µM in the test on HCT-116 [4] is -3.6%.
For `C[C@H]1[C@H](OC(=O)c2ccccc2)CC[C@@H]2CCC[C@H](CC(=O)O)N21` the same measures were -6.2%, -10.2%, -4.3% and -12.8%.
As for `COc1ccc(C(=O)O[C@@H]2CC[C@@H]3CCC[C@H](CC(=O)O)N3[C@H]2C)c(OC)c1`, the inhibition at 20 µM in the test with HCT-116 [1] is -3.2%. For the same compound, the inhibition at 10 µM with HCT-116 [2] was -4.7%. In addition, the inhibition at 1 µM with HCT-116 [3] was -8%. Moreover, in the test with HCT-116 [4], the inhibition at 0.4 µM is -6.1%.
Turning to `COc1ccc(C(=O)O[C@@H]2CC[C@@H]3CCC[C@H](CC(=O)O)N3[C@H]2C)cc1OC`, the inhibition at 20 µM in the test with HCT-116 [1] is -13.1%. Besides, in the test with HCT-116 [2], the inhibition at 10 µM is -6.4%. In addition, the inhibition at 1 µM with HCT-116 [3] was -5.5%. Moreover, the inhibition at 0.4 µM in the test with HCT-116 [4] was -3.6%.
Consider `COc1cccc2c1C(=O)c1c(O)c3c(c(O)c1C2=O)C[C@@](O)(C(=O)CO)C[C@@H]3O[C@H]1C[C@H](N)[C@H](O)[C@H](C)O1` [DOXORUBICIN], for which, in the test on HCT-116 [1], the inhibition at 20 µM was found to be 91.7%. For the same compound, the inhibition at 10 µM in the test on HCT-116 [2] was 91.1%. In addition, in the test with HCT-116 [3], the inhibition at 1 µM was found to be 96.3%. In the test with HCT-116 [4], the inhibition at 0.4 µM was 84.5%.
